# Data published in US20250326771A1, “PIPERAZINE DERIVATIVES USEFUL IN HIV THERAPY” (VIIV HEALTHCARE COMPANY, priority 2022, published 2025).
# Key:
# [1] = biological target: cIAP1-BIR2 (Homo sapiens (Human), UniProt Q13490); experiment: BIR binding assay (FRET competition), cIAP1 BIR2
# How it was run: (§1)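 Compounds tested as 15-point, 3-fold series displacing 200 nM AlexaFluor647-labelled SMAC peptide from His-tagged BIR domain (cIAP1-BIR3 50 nM; cIAP1-BIR2 and cIAP2-BIR2 325 nM; XIAP-BIR3 100 nM), pH 7.4, 60 min. Eu-W1024 (2 nM) added 30 min; emission ratio fitted for IC50.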
# [2] = biological target: cIAP1-BIR3 (Homo sapiens (Human), UniProt Q13490); experiment: BIR binding assay (FRET competition), cIAP1 BIR3; conditions: for cIAP1 BIR3 vs BIR2 separation window: fold separation (FS) for cIAP1
# How it was run: as §1
# [3] = biological target: cIAP2-BIR3 (Homo sapiens (Human), UniProt Q13489); experiment: BIR binding assay (FRET competition), cIAP2 BIR3; conditions: for cIAP2 BIR3 vs BIR2 separation window: fold separation (FS) for cIAP2
# [4] = biological target: XIAP-BIR3 (Homo sapiens (Human), UniProt P98170); experiment: BIR binding assay (FRET competition), XIAP BIR3
# How it was run: as §1
# [5] = biological target: cIAP2-BIR2 (Homo sapiens (Human), UniProt Q13489); experiment: BIR binding assay (FRET competition), cIAP2 BIR2
# Procedure: The BIR domain binding assays are FRET based competition assays that utilize His-tagged versions of each of the BIR2 and BIR3 domains from cIAP1, cIAP2, and XIAP (each domain assayed separately) each at a custom optimal concentration and a probe, 200 nM SMAC/DIABLO peptide […] labelled with AlexaFluor647 (part #crb 1110326h, Discovery Peptides). The assay is conducted in 50 mM HEPES, […], 1 mM CHAPS, 5% Glycerol, 1 mM DTT, in dI water with a final pH of 7.4 and final volume of 20 uL. Final protein domain concentrations are: 50 nM cIAP1-BIR3 (Part #APT-11-370 Reaction Biology), 100 nM XIAP-BIR3 (Part #APT-11-351 Reaction Biology), 200 nM XIAP-BIR2 (Part #APT-11-470 Reaction Biology), 325 nM cIAP2-BIR2 (Part #APT-11-489 Reaction Biology), 50 nM cIAP2-BIR3 (Part #APT-11-372 Reaction Biology), 325 nM cIAP1-BIR2 (Part #APT-11-487 Reaction Biology). Compounds were plated using a HP Tecan D300 printer in a final total volume of 202 nl and DMSO concentration normalized across the 15-point, 3-fold dilution series. Peptide and probe were prepared at 2× relative to the concentrations above in binding buffer, 10 uL added to the prepared compound plates, and incubated for 60 minutes. LANCE Eu-W1024 (part #AD0401 Perkin Elmer #, vendor) was prepared at 2× concentration in binding buffer for final concentration of 2 nM, 10 uL added to each well, and plates incubated for 30 minutes. Plates were read on an ENVISION multifunction plate reader with […] laser excitation to obtain the 615 nm/665 nm emission ratio as indicative of probe:protein proximity. Data was analyzed using GraphPad PRISM and curves fit using log(inhibitor) vs. response—Variable slope (four […] method to obtain IC50 and pIC50 values.
# [6] = tested on: Jurkat HIV-luciferase clones; experiment: Jurkat latency reversal assay; assay type: cell-based; conditions: Jurkat latency reversal assay potency; for EC50: Homo sapiens, 48 h, read-out: Jurkat pEC50 (converted)
# How it was run: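 A 1:1:1 mix of three Jurkat clones (C16, 115, N6) carrying integrated luciferase-expressing HIV proviruses, 5,000 cells/well, was exposed to 3-fold, 14-point compound titrations from 10 μM at 0.5% DMSO for 48 h at 37° C. Steady-Glo luminescence was fitted by four-parameter logistic regression to give EC50 and maximal percent activation relative to vehicle.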
# cIAP1-BIR3, sequence (Q13490 253-363): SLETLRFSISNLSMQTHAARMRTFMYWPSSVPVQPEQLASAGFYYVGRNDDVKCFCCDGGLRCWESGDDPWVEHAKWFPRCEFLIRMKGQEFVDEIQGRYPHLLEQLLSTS
# cIAP1-BIR2, sequence (Q13490 173-257): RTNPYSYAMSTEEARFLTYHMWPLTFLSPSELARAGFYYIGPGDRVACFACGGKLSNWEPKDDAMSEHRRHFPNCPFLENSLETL
# XIAP-BIR3, sequence (P98170 241-356): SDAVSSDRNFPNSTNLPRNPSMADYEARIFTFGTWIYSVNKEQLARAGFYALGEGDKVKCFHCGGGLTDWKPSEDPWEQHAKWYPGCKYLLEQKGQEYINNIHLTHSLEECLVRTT
# cIAP2-BIR3, sequence (Q13489 238-349): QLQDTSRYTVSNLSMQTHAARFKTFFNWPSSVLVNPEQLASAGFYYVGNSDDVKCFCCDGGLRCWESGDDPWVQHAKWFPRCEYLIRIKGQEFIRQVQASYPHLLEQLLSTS
# cIAP2-BIR2, sequence (Q13489 158-242): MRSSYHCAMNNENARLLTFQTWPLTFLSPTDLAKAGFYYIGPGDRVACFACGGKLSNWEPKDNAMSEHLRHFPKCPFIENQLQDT
Structure (SMILES),IC50 [1],IC50 [2],cIAP1 BIR3 vs BIR2 separation window [2],IC50 [3],cIAP2 BIR3 vs BIR2 separation window [3],IC50 [4],IC50 [5],EC50 [6],cIAP1 BIR2 (pIC50) ([1]; FRET competition binding),cIAP1 BIR3 (pIC50) ([2]; FRET competition binding),cIAP2 BIR3 (pIC50) ([3]; FRET competition binding),XIAP BIR3 (pIC50) ([4]; FRET competition binding),cIAP2 BIR2 (pIC50) ([5]; FRET competition binding),Jurkat pEC50 [6]
"C[C@@H]1CN(CC(=O)N2CC(C)(C)c3[nH]c(=O)c(Cc4ccc(F)c(F)c4F)cc32)[C@@H](CN2CCO[C@H](C(=O)NCc3ccc(CNC(=O)[C@@H]4CN(C[C@H]5CN[C@H](C)CN5CC(=O)N5CC(C)(C)c6[nH]c(=O)c(Cc7ccc(F)c(F)c7F)cc65)CCO4)cc3)C2)CN1 [Compound 178, (2S,2′S)-N,N′-(1,4-phenylenebis(methylene)) bis(4-(((2R,5R)-1-(2-(3,3-dimethyl-5-oxo-6-(2,3,4-trifluorobenzyl)-2,3,4,5-tetrahydro-1H-pyrrolo[3,2-b]pyridin-1-yl)-2-oxoethyl)-5-methylpiperazin-2-yl)methyl)morpholine-2-carboxamide)]",1000 to 3160 nM,15.8 to 31.6 nM,"+++ (10,000>FS>1,000)",7.94 to 15.8 nM,"+++ (10,000>FS>1,000)",15.8 to 31.6 nM,1000 to 3160 nM,0.49 to 12.6 nM,,,,,,
"C[C@@H]1CN(CC(=O)N2CC(C)(C)c3[nH]c(=O)c(Cc4ccc(F)cc4)cc32)[C@@H](CN2CCO[C@H](COc3ccc(Oc4ccc(OC[C@@H]5CN(C[C@H]6CN[C@H](C)CN6CC(=O)N6CC(C)(C)c7[nH]c(=O)c(Cc8ccc(F)cc8)cc76)CCO5)cc4)cc3)C2)CN1 [Example 55, 1,1′-(2,2′-((3R,3′R,6R,6′R)-(((2S,2'S)-(((oxybis(4,1-phenylene))bis(oxy))bis(methylene))bis(morpholine-2,4-diyl))bis(methylene))bis(3-methylpiperazine-6,1-diyl))bis(acetyl))bis(6-(4-fluorobenzyl)-3,3-dimethyl-1,2,3,4-tetrahydro-5H-pyrrolo[3,2-b]pyridin-5-one)]",,,"++++ (FS>10,000)",,"++++ (FS>10,000)",,,,+ (4.29<pIC50<=5.00),+ (7.50>pIC50>=6.30),+++ (8.10>pIC50>=7.80),++ (7.80>pIC50>=7.50),+ (4.29<pIC50<=5.00),++++ (9.31>pEC50>=7.90)
"CC(C)c1ccccc1Cc1cc2c([nH]c1=O)C(C)(C)CN2C(=O)CN1C[C@@H](C)NC[C@@H]1CN1CCO[C@H](C(=O)NCc2ccc(CNC(=O)[C@@H]3CN(C[C@H]4CN[C@H](C)CN4CC(=O)N4CC(C)(C)c5[nH]c(=O)c(Cc6ccccc6C(C)C)cc54)CCO3)cc2)C1 [Compound 173, (2S,2′S)-N,N′-(1,4-phenylenebis(methylene)) bis(4-(((2R,5R)-1-(2-(6-(2-isopropylbenzyl)-3,3-dimethyl-5-oxo-2,3,4,5-tetrahydro-1H-pyrrolo[3,2-b]pyridin-1-yl)-2-oxoethyl)-5-methylpiperazin-2-yl)methyl)morpholine-2-carboxamide)]",10000 to 51300 nM,31.6 to 501 nM,"+++ (10,000>FS>1,000)",15.8 to 31.6 nM,"+++ (10,000>FS>1,000)",31.6 to 501 nM,3160 to 10000 nM,63.1 to 316 nM,,,,,,
"C[C@@H]1CN(CC(=O)N2CC(C)(C)c3[nH]c(=O)c(Cc4ccc(F)cc4)cc32)[C@@H](CN2CCN(C(=O)COc3ccc(OCC(=O)N4CCN(C[C@H]5CN[C@H](C)CN5CC(=O)N5CC(C)(C)c6[nH]c(=O)c(Cc7ccc(F)cc7)cc65)[C@H](C)C4)cc3)C[C@H]2C)CN1 [Example 13, 1,1′-(2,2′-((3R,3′R,6R,6′R)-(((2R,2′R)-(2,2′-(1,4-phenylenebis(oxy))bis(acetyl))bis(2-methylpiperazine-4,1-diyl))bis(methylene))bis(3-methylpiperazine-6,1-diyl))bis(acetyl))bis(6-(4-fluorobenzyl)-3,3-dimethyl-1,2,3,4-tetrahydro-5H-pyrrolo[3,2-b]pyridin-5-one)]",22.4 to 1000 nM,15.8 to 31.6 nM,,15.8 to 31.6 nM,,15.8 to 31.6 nM,1000 to 3160 nM,63.1 to 316 nM,,,,,,
"C[C@@H]1CN(CC(=O)N2CC(C)(C)c3[nH]c(=O)c(Cc4ccc(F)cc4)cc32)[C@@H](CN2CCN(CCCCCCCCCCCCN3CCN(C[C@H]4CN[C@H](C)CN4CC(=O)N4CC(C)(C)c5[nH]c(=O)c(Cc6ccc(F)cc6)cc54)[C@H](C)C3)C[C@H]2C)CN1 [Example 26, 1,1′-(2,2′-((3R,3′R,6R,6′R)-(((2R,2′R)-dodecane-1,12-diylbis(2-methylpiperazine-4,1-diyl))bis(methylene))bis(3-methylpiperazine-6,1-diyl))bis(acetyl))bis(6-(4-fluorobenzyl)-3,3-dimethyl-1,2,3,4-tetrahydro-5H-pyrrolo[3,2-b]pyridin-5-one)]",1000 to 3160 nM,31.6 to 501 nM,,7.94 to 15.8 nM,,15.8 to 31.6 nM,1000 to 3160 nM,12.6 to 63.1 nM,,,,,,
"C[C@@H]1CN(CC(=O)N2CC(C)(C)c3[nH]c(=O)c(Cc4ccc(F)cc4)cc32)[C@@H](CN2CCO[C@H](COc3ccc(Cl)c(OC[C@@H]4CN(C[C@H]5CN[C@H](C)CN5CC(=O)N5CC(C)(C)c6[nH]c(=O)c(Cc7ccc(F)cc7)cc65)CCO4)c3)C2)CN1 [Example 89, 1,1′-(2,2′-((3R,3′R,6R,6′R)-(((2S,2'S)-(((4-chloro-1,3-phenylene)bis(oxy))bis(methylene))bis(morpholine-2,4-diyl))bis(methylene))bis(3-methylpiperazine-6,1-diyl))bis(acetyl))bis(6-(4-fluorobenzyl)-3,3-dimethyl-1,2,3,4-tetrahydro-5H-pyrrolo[3,2-b]pyridin-5-one)]",3160 to 10000 nM,15.8 to 31.6 nM,"+++ (10,000>FS>1,000)",7.94 to 15.8 nM,"+++ (10,000>FS>1,000)",15.8 to 31.6 nM,1000 to 3160 nM,0.49 to 12.6 nM,,,,,,
"C[C@@H]1CN(CC(=O)N2CC(C)(C)c3[nH]c(=O)c(Cc4ccc(Cl)cc4C(F)(F)F)cc32)[C@@H](CN2CCO[C@H](C(=O)NCc3ccc(CNC(=O)[C@@H]4CN(C[C@H]5CN[C@H](C)CN5CC(=O)N5CC(C)(C)c6[nH]c(=O)c(Cc7ccc(Cl)cc7C(F)(F)F)cc65)CCO4)cc3)C2)CN1 [Compound 170, (2S,2′S)-N,N′-(1,4-phenylenebis(methylene)) bis(4-(((2R,5R)-1-(2-(6-(4-chloro-2-(trifluoromethyl)benzyl)-3,3-dimethyl-5-oxo-2,3,4,5-tetrahydro-1H-pyrrolo[3,2-b]pyridin-1-yl)-2-oxoethyl)-5-methylpiperazin-2-yl)methyl)morpholine-2-carboxamide)]",3160 to 10000 nM,1.38 to 7.94 nM,"+++ (10,000>FS>1,000)",1.38 to 7.94 nM,"+++ (10,000>FS>1,000)",15.8 to 31.6 nM,1000 to 3160 nM,12.6 to 63.1 nM,,,,,,
COC(=O)c1cc(F)ccc1Cc1cnc2c(c1)N(C(=O)CN1C[C@@H](C)NC[C@@H]1CN1CCO[C@H](COc3cccc(OC[C@@H]4CN(C[C@H]5CN[C@H](C)CN5CC(=O)N5CC(C)(C)c6ncc(Cc7ccc(F)cc7C(=O)OC)cc65)CCO4)c3)C1)CC2(C)C [Compound 152],3160 to 10000 nM,7.94 to 15.8 nM,"+++ (10,000>FS>1,000)",7.94 to 15.8 nM,"+++ (10,000>FS>1,000)",31.6 to 501 nM,3160 to 10000 nM,63.1 to 316 nM,,,,,,
